This note sets out measurements from US20240262806A1, “INHIBITORS OF NLRP3” (PTC THERAPEUTICS, INC., priority 2021, published 2024).

Structures are written as SMILES.

The test system of this experiment is NLRP3 inflammasome. In words: IL-1β Secretion Assay (NLRP3-dependent IL-1β secretion in PMA-differentiated THP-1 cells, nigericin activation, HTRF). Particulars: Homo sapiens, THP-1, THP-1 cells, 100 ng/mL PMA 24 h, compound 20 h, 2.5 μM Nigericin 3 h; read-out: IC50 IL-1β Inhibition. It is filed as cell-based. The protocol:
Cells were washed 1× with 100 ul PBS and replaced with fresh RPMI+5% FBS. Compounds were serial diluted in DMSO with 3 fold dilution for a total of 7 concentrations.
Compounds, once produced and prepared according to the present invention, can be assessed in variety of assays to characterize their activities. […] IC50 values of IL1β inhibition were calculated from the plot of percentage of inhibition versus the inhibitor concentration by a logistics fit. TABLE I depict examples of compounds according to generic Formulae I. Data which is <1 nM is listed as *****; data 1-10 nM is listed as ****; data 10-100 nM is listed as ***, data 100-300 nM is listed as **, data >300 nM is listed as *.
(In general: In TR-FRET formats the signal depends on donor and acceptor labels being close together.)
As to `CCOC(=O)CN1CCC[C@@H](Nc2nnc(-c3ccc(C(F)(F)F)cc3O)c3ccccc23)C1` [Compound I-65, Ethyl (R)-2-(3-((4-(2-hydroxy-4-(trifluoromethyl)phenyl)phthalazin-1-yl)amino)piperidin-1-yl)acetate], the IC50 was < 1 nM.

Consider `CN1CCC[C@@H](Nc2nnc(-c3ccc(Cl)cc3O)c3cccnc23)C1` [Compound I-67], for which the IC50 is < 1 nM.

In the case of `Oc1cc(C(F)(F)F)ccc1-c1nnc(NC[C@@H]2CCCN2)c2ccccc12` [Compound I-68], the IC50 was < 1 nM.

With `Cc1ccc(-c2nnc(N[C@@H]3CCCN(C)C3)c3cnccc23)c(O)c1` [Compound I-71, 5-Methyl-2-[4-[[(3R)-1-methyl-3-piperidyl]amino]pyrido[3,4-d]pyridazin-1-yl]phenol], the IC50 was < 1 nM.

On to `CN1CCC[C@@H](Nc2nnc(-c3c(O)cccc3F)c3ccncc23)C1` [Compound I-72], for which the IC50 lay within 1 to 10 nM.

On to `COc1cccc(-c2nnc(N[C@@H]3CCCN(C)C3)c3cnccc23)c1O` [Compound I-73], for which the IC50 is < 1 nM.

Take `CN1CCC[C@@H](Nc2nnc(-c3cnc(C#N)cc3O)c3ccccc23)C1` [Compound I-74]: the IC50 lay in the range of 10 to 100 nM.

With `CN1CCC[C@@H](Nc2nnc(-c3ccc(C(F)(F)F)nc3O)c3ccccc23)C1` [Compound I-75], the IC50 fell in the range of 10 to 100 nM.

Turning to `CN1CCC[C@@H](Nc2nnc(-c3cccc(Cl)c3O)c3ccncc23)C1` [Compound I-76], the IC50 was < 1 nM.

`CN1CCC[C@@H](Nc2nnc(-c3cccc(C4CC4)c3O)c3ccncc23)C1` [Compound I-77]: the IC50 was < 1 nM.

Turning to `Cc1ccc(-c2nnc(N[C@@H]3CCCN(C)C3)c3cnccc23)c(O)n1` [Compound I-78], the IC50 lay in the range of 10 to 100 nM.

Take `CN1CCC[C@@H](Nc2nnc(-c3cnc(C(F)(F)F)cc3O)c3ccccc23)C1` [Compound I-79]: the IC50 was 10 to 100 nM.

`CN1CCC[C@@H](Nc2nnc(-c3ccc(C#N)nc3O)c3ccccc23)C1` [Compound I-80]: the IC50 lay in the range of 100 to 300 nM.

For `CN1CCC[C@@H](Nc2nnc(-c3ncc(Cl)cc3O)c3ccccc23)C1` [Compound I-81, (R)-5-Chloro-2-(4-((1-methylpiperidin-3-yl)amino)phthalazin-1-yl)pyridin-3-ol], the IC50 fell in the range of 10 to 100 nM.

On to `Cc1cccc(-c2nnc(N[C@@H]3CCCN(C)C3)c3cnccc23)c1O` [Compound I-82], for which the IC50 is < 1 nM.

Consider `Oc1cc(C(F)(F)F)ccc1-c1nnc(N[C@H]2CNC[C@H](O)C2)c2ccccc12` [Compound I-83], for which the IC50 fell in the range of 10 to 100 nM.

Regarding `CN1C[C@H](O)C[C@@H](Nc2nnc(-c3ccc(C(F)(F)F)cc3O)c3ccccc23)C1` [Compound I-84], the IC50 is 10 to 100 nM.

`CN1CCC[C@@H](Nc2nnc(-c3ccc(C(F)(F)F)cc3O)c3occc23)C1` [Compound I-85]: the IC50 was 10 to 100 nM.

Turning to `Cc1ccc(-c2nnc(N[C@@H]3CCCN(C)C3)c3ncccc23)c(O)c1` [Compound I-86], the IC50 is < 1 nM.

For `CN1CCC[C@H]1CNc1nnc(-c2ccc(C(F)(F)F)cc2O)c2ccccc12` [Compound I-87], the IC50 is 1 to 10 nM.

With `Cc1cc(O)c(-c2nnc(N[C@@H]3CCCN(C)C3)c3cnccc23)cc1F` [Compound I-88], the IC50 was < 1 nM.

For the compound `CN1CCC[C@@H](Nc2nnc(-c3ccc(C4CC4)cc3O)c3ccncc23)C1` [Compound I-89], the IC50 is < 1 nM.

As for `CN1CCC[C@@H](Nc2nnc(-c3ncc(C4CC4)cc3O)c3ccccc23)C1` [Compound I-91, (R)-5-Cyclopropyl-2-(4-((1-methylpiperidin-3-yl)amino)phthalazin-1-yl)pyridin-3-ol], the IC50 was < 1 nM.

Turning to `CN1CCC[C@@H](Nc2nnc(-c3ccc(N4CCCC4)cc3O)c3ccccc23)C1` [Compound I-93], the IC50 is 1 to 10 nM.

Regarding `CN1CCC[C@@H](Nc2nnc(-c3ccc(-c4ccn(C)c4)cc3O)c3ccccc23)C1` [Compound I-94], the IC50 is 1 to 10 nM.

Take `CN1CCCCC(Nc2nnc(-c3ccc(C(F)(F)F)cc3O)c3ccccc23)C1` (centres unmarked) [Compound I-95]: the IC50 was in the range of 1 to 10 nM.

Regarding `CN1CCC[C@@H](Cc2nnc(-c3ccc(C(F)(F)F)cc3O)c3ccccc23)C1` [Compound I-96, (S)-2-(4-((1-methylpiperidin-3-yl)methyl)phthalazin-1-yl)-5-(trifluoromethyl)phenol], the IC50 was > 300 nM.

As to `CN1CCC[C@H](Cc2nnc(-c3ccc(C(F)(F)F)cc3O)c3ccccc23)C1` [Compound I-97, (R)-2-(4-((1-methylpiperidin-3-yl)methyl)phthalazin-1-yl)-5-(trifluoromethyl)phenol], the IC50 was < 1 nM.

As to `O=C(O)CN1CCC[C@@H](Nc2nnc(-c3ccc(C(F)(F)F)cc3O)c3ccccc23)C1` [Compound I-98, (R)-2-(3-((4-(2-Hydroxy-4-(trifluoromethyl)phenyl)phthalazin-1-yl)amino)piperidin-1-yl)acetic acid], the IC50 was < 1 nM.

With `Cc1ccc(-c2nnc(N[C@@H]3CCCN(C)C3)c3ccncc23)c(O)c1` [Compound I-99], the IC50 is < 1 nM.

In the case of `OCCN1CCC[C@@H](Nc2nnc(-c3ccc(C(F)(F)F)cc3O)c3cnccc23)C1` [Compound I-101], the IC50 was < 1 nM.

Regarding `CN1CCC[C@@H](Nc2nnc(-c3ccc(OC(F)(F)F)cc3O)c3ccncc23)C1` [Compound I-102], the IC50 was < 1 nM.

As for `Cc1cc(C(F)(F)F)cc(O)c1-c1nnc(N[C@@H]2CCCN(C)C2)c2cnccc12` [Compound I-103], the IC50 is < 1 nM.

Consider `CN1CCC[C@@H](Nc2nnc(-c3ccc(C(F)(F)F)cc3O)c3c(Cl)ccn23)C1` [Compound I-104, 2-[8-Chloro-4-[[(3R)-1-methyl-3-piperidyl]amino]pyrrolo[1,2-d][1,2,4]triazin-1-yl]-5-(trifluoromethyl)phenol], for which the IC50 lay in the range of 1 to 10 nM.

For `Cc1cccc(O)c1-c1nnc(N[C@@H]2CCCN(C)C2)c2cnccc12` [Compound I-105], the IC50 was in the range of 1 to 10 nM.

For `CN1CCC(c2ccc(-c3nnc(N[C@@H]4CCCN(C)C4)c4ccccc34)c(O)c2)C1` (some centres unmarked) [Compound I-107], the 50% inhibitory concentration (IC50) is 10 to 100 nM.

Turning to `Oc1cc(C(F)(F)F)ccc1-c1nnc(NCCN2CCOCC2)c2ccccc12` [Compound I-108], the IC50 was 10 to 100 nM.

Take `Oc1cc(C(F)(F)F)ccc1-c1nnc(NC2CNC2)c2ccccc12` [Compound I-109]: the IC50 was 10 to 100 nM.

Regarding `Oc1cc(C(F)(F)F)ccc1-c1nnc(NC[C@@H]2CCCN2)c2ccncc12` [Compound I-110], the half-inhibitory concentration (IC50) was < 1 nM.

As for `Oc1cc(C(F)(F)F)ccc1-c1nnc(NC[C@@H]2CCCN2)c2cnccc12` [Compound I-111], the concentration for half-maximal inhibition (IC50) fell in the range of 1 to 10 nM.

Turning to `CN1CCC[C@H]1CNc1nnc(-c2ccc(C(F)(F)F)cc2O)c2ccncc12` [Compound I-112], the IC50 is < 1 nM.

For `CCN1CCC[C@H]1CNc1nnc(-c2ccc(C(F)(F)F)cc2O)c2ccncc12` [Compound I-113], the IC50 was < 1 nM.

Take `CN1CCN(c2nnc(-c3ccc(C(F)(F)F)cc3O)c3cnccc23)CC1` [Compound I-116]: the IC50 is 100 to 300 nM.

On to `CN1CCC[C@@H](Nc2nnc(-c3ccc(C(F)(F)F)cc3O)c3c2N(C)CCO3)C1` [Compound I-117], for which the IC50 lay within 10 to 100 nM.

One may read the IC50 as the midpoint of a concentration-inhibition curve.
